# Laboratory results as given in patent publication US20250352615A1, “COMPOSITIONS AND METHODS FOR THE MODULATION OF PIEZO1 AND TRPV4” (Duke University, priority 2021, published 2025).
# Key:
# Type in all cases: cell-based
# human stellate cells = assay: Gene expression (RT-PCR) in Yoda1-treated human stellate cells
# Procedure: Mouse and human stellate cells were prepared and maintained in culture as previously described Swain et al., JCI Insight 7: e158288 (2022). Summarized here: Mouse and human PSCs were isolated using collagenase digestion. Modified Krebs Henseleit Buffer (KHB) solution (100 mL) was prepared as described previously in Romac et al., Nat. Commun. 9(1): 1715 (2018). Pancreatic tissue was digested with 2 mg of collagenase NB 8 (SERVA, catalog 17456) dissolved in 10 mL of modified KHB solution containing 1 mg soybean trypsin inhibitor (SBTI 1-S; Millipore Sigma, catalog T9003) and 20 mg BSA (Thermo Fisher Scientific; BP1600-100). Digestion solution (5 mL) was used to inflate the pancreas. Pancreas with 5 mL of digestion solution was incubated in a shaking water bath for 10 minutes at 37° C. The solution was then discarded. The pancreas tissue was cut into small pieces and digested with fresh 5 mL digestion buffer. Tissue was incubated in a shaking water bath for 40 minutes at 37° C. The cells were then separated from tissue by pipetting up-down with a 10 mL pipette and passed sequentially through a 70 μm and a 40 μm cell strainer. The filtrate was centrifuged at 150×g for 3 minutes at room temperature. The cells were washed with 10 mL Leibovitz's media (Thermo Fisher Scientific, catalog 11415-064), passed through a 20 μm filter, and centrifuged at 80 g for 3 minutes at room temperature. The supernate was removed, and isolated stellate cells were plated on a thin-layered Matrigel-coated glass bottom culture plate (MatTek, P35G-0-14-C). Before plating the cells, Matrigel solution (Corning, catalog 354234) at a ratio of 1.5:100 DMEM/F12 (Thermo Fisher Scientific, catalog 11330-032) was poured onto the culture plate and incubated for 2 hours at 37° C. to form a thin layer of Matrigel coating. Matrigel mixture was removed, and the plate was washed with PBS before cells were plated. Cell culture media, DMEM/F12 with 5% FBS was used for mouse stellate cells. Fresh, human pancreatic tissue (provided by Duke University's BioRepository & Precision Pathology Center under IRB approval) was digested with collagenase as described above with modifications. Collagenase (2.5 mg) in 10 mL of modified KHB solution was used for digestion. The digested tissues were filtered through a 100 μm cell strainer. The cells were cultured with DMEM/F12 with 10% FBS in a Matrigel-coated plate. After 24 hours, the cell media was replaced with fresh media to remove unattached and dead cells. After 2 days, cells were immunostained for GFAP and used for experiments. Perinuclear fat droplets were stained with BODIPY 493/503 (4,4-Difluoro-1,3,5,7,8-Pentamethyl-4-Bora-3a,4a-Diaza-s-Indacene; Invitrogen, catalog D3922) to confirm stellate cell quiescence.
# Yoda 1 was resuspended in DMSO at 25 mM stock solution. […]
# TRPV4 = target: T1, TRPV4 (Mus musculus, UniProt Q9EPK8); assay: Calcium imaging of TRPV4-mediated [Ca2+]i in pancreatic acini (agonists, shear stress, Yoda1 sustained phase); details: Yoda1
# T1 construct: endogenous in cells; host or cells: freshly isolated mouse pancreatic acini (C57BL/6J WT)
# T1 sequence (Q9EPK8 whole entry): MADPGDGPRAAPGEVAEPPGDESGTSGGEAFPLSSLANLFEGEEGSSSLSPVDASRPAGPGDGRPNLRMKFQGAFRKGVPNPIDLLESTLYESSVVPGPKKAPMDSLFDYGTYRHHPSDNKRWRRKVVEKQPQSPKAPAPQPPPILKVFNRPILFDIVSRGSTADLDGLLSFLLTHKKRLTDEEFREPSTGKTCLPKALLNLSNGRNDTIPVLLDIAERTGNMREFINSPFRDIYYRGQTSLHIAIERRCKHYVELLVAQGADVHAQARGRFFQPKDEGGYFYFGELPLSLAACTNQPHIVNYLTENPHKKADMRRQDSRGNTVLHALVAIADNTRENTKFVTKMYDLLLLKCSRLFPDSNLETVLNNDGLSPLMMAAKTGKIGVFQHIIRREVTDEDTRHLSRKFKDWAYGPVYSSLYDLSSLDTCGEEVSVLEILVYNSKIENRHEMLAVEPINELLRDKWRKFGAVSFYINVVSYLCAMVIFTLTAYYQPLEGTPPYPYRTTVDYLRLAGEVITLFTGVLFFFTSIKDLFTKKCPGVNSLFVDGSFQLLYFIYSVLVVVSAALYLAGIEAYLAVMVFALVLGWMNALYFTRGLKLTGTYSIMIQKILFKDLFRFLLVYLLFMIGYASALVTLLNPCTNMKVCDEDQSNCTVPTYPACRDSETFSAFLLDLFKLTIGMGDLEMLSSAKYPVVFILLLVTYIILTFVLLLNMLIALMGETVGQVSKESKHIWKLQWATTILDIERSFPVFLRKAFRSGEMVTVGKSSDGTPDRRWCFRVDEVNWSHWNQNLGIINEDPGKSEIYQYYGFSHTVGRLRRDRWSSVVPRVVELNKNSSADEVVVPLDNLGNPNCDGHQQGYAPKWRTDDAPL
# Procedure: Mouse pancreatic acini were isolated using a standard collagenase digestion protocol. Isolated acini were plated on a thin-layered, Matrigel-coated, glass-bottom, culture plate (MatTek, P35G-0-14-C). Freshly isolated acini were used in each experiment.
# Parallel-plate fluid flow chambers (μ-Slide I 0.4 Luer, and μ-Slide I 0.2 Luer from Ibidi GmbH) were used to measure the shear stress-induced changes in intracellular calcium, mitochondrial depolarization, and trypsin activation. The constant flow rate with shear stress (T) was determined as follows: τ=η×[…] φ for μ-Slide I 0.4 Luer and τ=η×330.4 φ for μ-Slide I 0.2 Luer, where η=viscosity of the medium and φ=flow rate (according to the manufacturer's instructions, Ibidi).
# Calcium imaging in pancreatic acini was performed as previously described. The chemicals used in calcium imaging experiments included the following: Yoda1 (Tocris; 5586), GsMTx4 (Abcam; ab141871), 5′,6′-EET (Santa Cruz Biotechnology; sc-221066), AA (Millipore Sigma; A3611), HC067047 (Tocris; 4100), GSK1016790A (Millipore Sigma; G0798), RN1734 (Tocris; 3746), AACOCF3 (Tocris; 1462), YM26734 (Tocris; 2522), GF109203X (Tocris; 0741), and CCK8 (Sigma-Aldrich).
# pancreatic acini = assay: Cell death assays of pancreatic acini (LDH release, Live/Dead, live-cell imaging)
# Procedure: The viability of pancreatic acini with Yoda1 and CCK treatments was analyzed using the Live/Dead Cell Imaging Kit (Thermo Fisher Scientific, catalog R37601) or the LDH Release Assay Kit (Promega, catalog G1780).
# [1] = Yoda1, 24 hr, human stellate cells, preliminary
structure (smiles),measurement,setting,value
Clc1cccc(Cl)c1CSc1nnc(-c2cnccn2)s1 [Yoda1],expression of fibronectin and IL-6,"human stellate cells; Yoda1 25 μM, 24 hr",increased expression of fibronectin and IL-6
same,ACTA2 mRNA expression,human stellate cells; [1],decreases ACTA2
same,CD10 mRNA expression,human stellate cells; [1],increases CD10 expression
same,TRPV4 mRNA levels,"human stellate cells; human PSCs, 24 hr, Yoda1 5 μm and 25 μM",upregulates TRPV4 expression in PSCs
same,[Ca2+]i response in acini from TRPV4-KO mice,TRPV4,only transient elevation in [Ca^2+]i
same,"acinar cell death, both Yoda1 and CCK vs individual application","pancreatic acini; Yoda1 50 μM + CCK 1 nM, WT acini",acinar cell death was greater
same,acinar cell morphology by live-cell imaging,"pancreatic acini; Yoda1 50 μM, WT acini",caused swelling of WT pancreatic acinar cells and release of zymogen granules from the basolateral surface and gradually ruptured the cell membrane
same,response of acinar cells from Piezo1aci-KO mice (live-cell imaging),"pancreatic acini; Yoda1, Piezo1aci-KO acini",did not respond to Yoda1
